# From patent US20240390369A1, “METHODS FOR DETERMINING RESPONSIVENESS TO TYK2 INHIBITORS” (Bristol-Myers Squibb Company, priority 2021, published 2024)
# Test system: patients with psoriatic arthritis
# Assay: Phase 2 trial in psoriatic arthritis: ACR20 response at week 16
# Assay type: in vivo, human
# Settings: for Odds Ratio for ACR20 response / Interaction Term for ACR20 response (ratio of odds ratios): week 16
# Experimental: In a double-blind Phase 2 trial, 203 patients with psoriatic arthritis were randomized into three groups: deucravacitinib 6 mg once daily (N=70), deucravacitinib 12 mg once daily (N=67), or placebo (N=66). All subjects had active psoriatic arthritis according to the Classification Criteria for Psoriatic Arthritis (CASPAR); for active disease, these criteria required ≥3 tender joint count, ≥3 swollen joint count, and a C-reactive protein level above 3 mg/L. Other inclusion criteria included the following: presence of at least one plaque psoriasis lesion, and prior treatment failure with a non-biologic disease modifying anti-rheumatic drug, a non-steroidal anti-inflammatory drug, or a steroid. With respect to treatment history, approximately 70% of subjects had not received prior treatment with a biologic and were biologic naïve, while up to 30% of subjects had failed or had been intolerant to one TNF-inhibitor (TNF=Tumor necrosis factor, also known as TNFα). Randomization was stratified by prior TNF-inhibitor use (experienced/naïve) and body weight (<90 kg and ≥90 kg).
# Clinical measures included the Psoriasis […] (PASI) score for skin psoriasis, American College of Rheumatology 20 (ACR20) response, Psoriatic Arthritis Disease Activity Score (PASDAS), Health Assessment Questionnaire-Disability Index (HAQ-DI), and Disease Activity Score 28 CRP (DAS28). To evaluate the predictive value of different protein measurements for the clinical response to deucravacitinib, baseline protein concentrations for responders and non-responders, as defined by ACR20 or PASI75 at week 16, were compared for each arm (placebo, 6 mg deucravacitinib once-daily, and 12 mg deucravacitinib once-daily).
# Boxplots for baseline protein level by response were generated with a horizontal line indicating the median protein level at baseline. For each treatment arm, a two-sample t-test was performed to test whether mean baseline serum protein level was different in responders versus non-responders. A Wilcoxon rank sum test (Mann-Whitney U test) was also performed to evaluate the difference in median serum protein level between responders and non-responders. Further, barplots of ACR20 and PASI75 response rate at week 16 for each treatment arm were generated for all subjects (protein level high and protein level low subjects, dichotomized according to median baseline level). Line plots of ACR20 and PASI75 response rate over time for each treatment arm were generated for protein level high and protein level low groups. Logistic regression models were also fit to evaluate associations between baseline protein levels and clinical outcome.
# For certain analyses described herein, patients were dichotomized by median values (e.g., of the proteins listed above or other measures) into “high” and “low” groups, such that the high group had values above the median and the low group had values less than or equal to the median.
# In addition, logistic regression models were fit for response measures ACR20 and PASI75, to generate the odds ratio of each of the deucravacitinib treatment arms versus placebo, in BD2-high and BD2-low groups. The following logistic regression models were used: • For ACR20 response status: ACR20 (Y/N)=treatment arm+BD2 group+treatment arm*BD2 group+TNF-inhibitor use+baseline weight (continuous). • For PASI75 response status: PASI75 (Y/N)=treatment arm+BD2 group+treatment arm*BD2 group+TNF-inhibitor use+baseline weight (continuous). […] FIGS. 26-31 are forest plots summarizing the logistic regression results of these models (for BD2 and other biomarkers described herein); each “N,” for “Placebo” and “Deucrava,” represents the number of responders in that group. […]
smiles,measurement,setting,value
"[2H]C([2H])([2H])NC(=O)c1nnc(NC(=O)C2CC2)cc1Nc1cccc(-c2ncn(C)n2)c1OC [deucravacitinib, 6-(cyclopropanecarboxamido)-4-((2-methoxy-3-(1-methyl-1H-1,2,4-triazol-3-yl)phenyl)amino)-N-(methyl-d3)pyridazine-3-carboxamide]",Odds Ratio for ACR20 response,"BD2 high (baseline above median 9,265 ng/L), 6 mg QD vs placebo",4.54
same,Odds Ratio for ACR20 response,"BD2 high (baseline above median 9,265 ng/L), 12 mg QD vs placebo",7.33
same,Odds Ratio for ACR20 response,"BD2 high, treatment arms combined vs placebo",5.645
same,Odds Ratio for ACR20 response,"BD2 low, 6 mg QD vs placebo",1.44
same,Odds Ratio for ACR20 response,"BD2 low, 12 mg QD vs placebo",2.15
same,Odds Ratio for ACR20 response,"BD2 low, treatment arms combined vs placebo",1.767
same,"Odds Ratio, ACR20 response status","CRP high, 6 mg QD vs placebo",2.167
same,"Odds Ratio, ACR20 response status","CRP high, 12 mg QD vs placebo",5.140
same,"Odds Ratio, ACR20 response status","CRP high, treatment arms combined vs placebo",3.215
same,"Odds Ratio, ACR20 response status","CRP low, 6 mg QD vs placebo",2.756
same,"Odds Ratio, ACR20 response status","CRP low, 12 mg QD vs placebo",2.676
same,"Odds Ratio, ACR20 response status","CRP low, treatment arms combined vs placebo",2.715
same,"Odds Ratio, ACR20 response status","CRP-high, 6 mg QD vs placebo, adjusted for baseline DAS28",2.168
same,"Odds Ratio, ACR20 response status","CRP-high, 12 mg QD vs placebo, adjusted for baseline DAS28",5.154
same,"Odds Ratio, ACR20 response status","CRP-low, 6 mg QD vs placebo, adjusted for baseline DAS28",2.752
same,"Odds Ratio, ACR20 response status","CRP-low, 12 mg QD vs placebo, adjusted for baseline DAS28",2.670
same,Odds Ratio for ACR20 response,"IL-17A high (baseline above median 0.575 ng/L), 6 mg QD vs placebo",4.30
same,Odds Ratio for ACR20 response,"IL-17A high (baseline above median 0.575 ng/L), 12 mg QD vs placebo",5.95
same,ACR20 response rate at week 16,"IL-17A high group, 6 mg QD and 12 mg QD vs placebo (FIG. 22)",higher in both 6 mg QD and 12 mg QD treatment arms compared to placebo in the IL-17-high group
same,Odds Ratio for ACR20 response,"IL-17A high, treatment arms combined vs placebo",4.990
same,Odds Ratio for ACR20 response,"IL-17A low, 6 mg QD vs placebo",1.39
same,Odds Ratio for ACR20 response,"IL-17A low, 12 mg QD vs placebo",2.14
same,Odds Ratio for ACR20 response,"IL-17A low, treatment arms combined vs placebo",1.723
same,ACR20 response rate at week 16,IL-19-high versus IL-19-low group (FIG. 15),a much more pronounced treatment effect (indicating a dose response effect of deucravacitinib) was observed in the IL-19-high group than in the IL-19-low group
same,Odds Ratio for ACR20 response,"IL-19 high (baseline above median 36 ng/L), 6 mg QD vs placebo",4.68
same,Odds Ratio for ACR20 response,"IL-19 high (baseline above median 36 ng/L), 12 mg QD vs placebo",11.44
same,Odds Ratio for ACR20 response,"IL-19 high, treatment arms combined vs placebo",6.679
same,Odds Ratio for ACR20 response,"IL-19 low, 6 mg QD vs placebo",1.41
same,Odds Ratio for ACR20 response,"IL-19 low, 12 mg QD vs placebo",1.56
same,Odds Ratio for ACR20 response,"IL-19 low, treatment arms combined vs placebo",1.487
same,Interaction Term for ACR20 response (ratio of odds ratios),"adjusted for baseline DAS28, 6 mg QD vs placebo: BD2-high versus BD2-low",3.06
same,Interaction Term for ACR20 response (ratio of odds ratios),"adjusted for baseline DAS28, 6 mg QD vs placebo: IL-17A-high versus IL-17A-low",3.08
same,Interaction Term for ACR20 response (ratio of odds ratios),"adjusted for baseline DAS28, 6 mg QD vs placebo: IL-19-high versus IL-19-low",3.32
same,Interaction Term for ACR20 response (ratio of odds ratios),"adjusted for baseline DAS28, 12 mg QD vs placebo: BD2-high versus BD2-low",3.42
same,Interaction Term for ACR20 response (ratio of odds ratios),"adjusted for baseline DAS28, 12 mg QD vs placebo: IL-17A-high versus IL-17A-low",2.75
same,Odds Ratio for ACR20 response,"adjusted for baseline DAS28, All patients, 12 mg QD vs placebo",3.62
same,Odds Ratio for ACR20 response,"adjusted for baseline DAS28, BD2-high, 6 mg QD vs placebo",4.42
same,Odds Ratio for ACR20 response,"adjusted for baseline DAS28, BD2-low, 6 mg QD vs placebo",1.44
same,Odds Ratio for ACR20 response,"adjusted for baseline DAS28, BD2-low, 12 mg QD vs placebo",2.14
same,Odds Ratio for ACR20 response,"adjusted for baseline DAS28, IL-17A-high, 6 mg QD vs placebo",4.27
same,Odds Ratio for ACR20 response,"adjusted for baseline DAS28, IL-17A-high, 12 mg QD vs placebo",5.92
same,Odds Ratio for ACR20 response,"adjusted for baseline DAS28, IL-17A-low, 6 mg QD vs placebo",1.39
same,Odds Ratio for ACR20 response,"adjusted for baseline DAS28, IL-19-high, 6 mg QD vs placebo",4.66
same,Odds Ratio for ACR20 response,"adjusted for baseline DAS28, IL-19-high, 12 mg QD vs placebo",11.47
same,Odds Ratio for ACR20 response,"adjusted for baseline DAS28, IL-19-low, 6 mg QD vs placebo",1.40
same,Odds Ratio for ACR20 response,"adjusted for baseline DAS28, IL-19-low, 12 mg QD vs placebo",1.56
same,Interaction Term for ACR20 response (ratio of odds ratios),treatment arms combined vs placebo: BD2 high versus BD2 low,3.195
same,"Interaction Term: treatment arm*CRP group, ACR20",treatment arms combined vs placebo: CRP high versus CRP low,1.184
same,Interaction Term for ACR20 response (ratio of odds ratios),treatment arms combined vs placebo: IL-17A high versus IL-17A low,2.886
same,Interaction Term for ACR20 response (ratio of odds ratios),treatment arms combined vs placebo: IL-19 high versus IL-19 low,4.491
